Columns and labels:
[1] = system: Surinam grass; test: Test B pre-/postemergence herbicide test; type: in vivo, Urochloa decumbens; settings: for Surinam Grass plant response rating: postemergence, visual rating, scale 0 (no effect) to 100 (complete control)
Procedure, shortened: (§1)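 Greenhouse pot assay with simultaneous preemergence (treated seed) and postemergence (2–18 cm seedlings) applications of surfactant-containing, non-phytotoxic solvent formulations. Response scored visually 13–15 days later on a 0–100 scale, 100 meaning complete control.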

[2] = system: corn; test: Test B pre-/postemergence herbicide test; type: in vivo, Zea mays; settings: for Corn plant response rating: postemergence, visual rating, scale 0 (no effect) to 100 (complete control)
Procedure, shortened: as §1

[3] = system: wheat; test: Test B postemergence herbicide test; type: in vivo, Triticum aestivum; set-up: key to Wheat plant response rating: 0 = no effect, 100 = complete control; settings: postemergence, visual rating, scale 0 (no effect) to 100 (complete control)
Procedure, shortened: (§2)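 Each value is a visual 0–100 response rating taken against controls 13 to 15 days after treatment in the greenhouse. Plants received formulated chemical postemergence at the 1- to 4-leaf stage or, in flooded paddy, at the 2-leaf stage.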

[4] = system: lambsquarters; test: Test B pre-/postemergence herbicide test; type: in vivo, Chenopodium album; settings: for Lambsquarters plant response rating: postemergence, visual rating, scale 0 (no effect) to 100 (complete control)
Procedure, shortened: as §1

[5] = system: cocklebur; test: Test B pre-/postemergence herbicide test; type: in vivo, Xanthium strumarium; settings: for Cocklebur plant response rating: postemergence, visual rating, scale 0 (no effect) to 100 (complete control)
Procedure, shortened: (§3)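 Formulation: non-phytotoxic solvent mix with surfactant. Timing: preemergence on seed and postemergence on 2–18 cm plants, applied concurrently. Readout after 13–15 d greenhouse: visual 0–100 control rating against controls.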

[6] = system: rice; test: Test C flooded paddy test; type: in vivo, Oryza sativa
Procedure, shortened: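 Injury scored visually against controls on a 0 (no effect) to 100 (complete control) scale, 12 to 14 days after treatment in greenhouse. Flooded paddy plants treated at 2-leaf stage; postemergence plants at 1- to 4-leaf stage, 2 to 18 cm tall.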

[7] = system: giant foxtail; test: Test B pre-/postemergence herbicide test; type: in vivo, Setaria faberi; settings: for Foxtail, Giant plant response rating: postemergence, visual rating, scale 0 (no effect) to 100 (complete control)
Procedure, shortened: as §1

[8] = system: velvetleaf; test: Test B pre-/postemergence herbicide test; type: in vivo, Abutilon theophrasti; settings: for Velvetleaf plant response rating: postemergence, visual rating, scale 0 (no effect) to 100 (complete control)
Procedure, shortened: as §1

[9] = system: barnyardgrass; test: Test B flooded paddy test; type: in vivo, Echinochloa crus-galli; settings: 1000 g ai/ha, visual rating, scale 0 to 100 (0 no effect, 100 complete control), 13 to 15 days
Procedure, shortened: (§4)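 Scale 0–100: zero equals no visible effect, 100 complete control, judged by eye relative to controls. Timing: 13 to 15 days in greenhouse post-treatment. Growth stage at spraying: two leaves (paddy) or one to four leaves, 2–18 cm (postemergence).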

[10] = system: rice; test: Test B pre-/postemergence herbicide test; type: in vivo, Oryza sativa; settings: preemergence
Procedure, shortened: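 Species tested were Echinochloa crus-galli, Ipomoea coccinea, Xanthium strumarium and Oryza sativa, treated both before emergence and at the 1- to 4-leaf stage; rice and barnyardgrass were also tested under flooding at 2 leaves. Greenhouse incubation lasted 13–15 days before visual 0–100 scoring.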

[11] = system: ducksalad; test: Test C flooded paddy test; type: in vivo, Heteranthera limosa
[12] = system: pigweed; test: Test B pre-/postemergence herbicide test; type: in vivo, Amaranthus retroflexus; settings: for Pigweed plant response rating: postemergence, visual rating, scale 0 (no effect) to 100 (complete control)
Procedure, shortened: as §1

[13] = system: rice; test: Test B flooded paddy test; type: in vivo, Oryza sativa; settings: 1000 g ai/ha, visual rating, scale 0 to 100 (0 no effect, 100 complete control), 13 to 15 days
Procedure, shortened: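 Greenhouse test; postemergence application to plants at 1–4 leaves (2–18 cm); paddy species at 2 leaves; evaluated visually vs controls at 13–15 days; scale 0–100 (100 = complete control).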

[14] = system: wild oat; test: Test B postemergence herbicide test; type: in vivo, Avena fatua; settings: postemergence, visual rating, scale 0 (no effect) to 100 (complete control)
Procedure, shortened: as §2

[15] = system: barnyardgrass; test: Test B pre-/postemergence herbicide test; type: in vivo, Echinochloa crus-galli; settings: for Barnyardgrass plant response rating: postemergence, visual rating, scale 0 (no effect) to 100 (complete control)
Procedure, shortened: as §3

[16] = system: barnyardgrass; test: Test C flooded paddy test; type: in vivo, Echinochloa crus-galli
Procedure, shortened: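 Ratings (0 = no effect, 100 = complete control) come from visual comparison with untreated plants after 12 to 14 days in the greenhouse. Treatment was postemergence at the 1- to 4-leaf stage (2–18 cm), or at the 2-leaf stage for the flooded paddy barnyardgrass.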

[17] = system: small flower umbrella sedge; test: Test B flooded paddy test; type: in vivo, Cyperus difformis; settings: 1000 g ai/ha, visual rating, scale 0 to 100 (0 no effect, 100 complete control), 13 to 15 days
Procedure, shortened: as §4

[18] = system: large crabgrass; test: Test B pre-/postemergence herbicide test; type: in vivo, Digitaria sanguinalis; settings: for Crabgrass, Large plant response rating: postemergence, visual rating, scale 0 (no effect) to 100 (complete control)
Procedure, shortened: as §1

[19] = system: morningglory; test: Test B pre-/postemergence herbicide test; type: in vivo, Ipomoea coccinea; settings: for Morningglory plant response rating: postemergence, visual rating, scale 0 (no effect) to 100 (complete control)
Procedure, shortened: as §3

[20] = system: blackgrass; test: Test B postemergence herbicide test; type: in vivo, Alopecurus myosuroides; settings: postemergence, visual rating, scale 0 (no effect) to 100 (complete control)
Procedure, shortened: as §4

[21] = system: smallflower umbrella sedge; test: Test C flooded paddy test; type: in vivo, Cyperus difformis
[22] = system: ducksalad; test: Test B flooded paddy test; type: in vivo, Heteranthera limosa; settings: 1000 g ai/ha, visual rating, scale 0 to 100 (0 no effect, 100 complete control), 13 to 15 days
Procedure, shortened: as §4

[23] = 125 g ai/ha, 0 = no effect, 100 = complete control, preemergence
[24] = 500 g ai/ha, visual rating 0-100, 0 no effect, 100 complete control, preemergence
[25] = 62 g ai/ha, scale 0 to 100 (0 no effect, 100 complete control)
[26] = 125 g ai/ha, scale 0 to 100 (0 no effect, 100 complete control)
[27] = 250 g ai/ha, scale of 0 to 100, 0 is no effect, 100 is complete control
[28] = 500 g ai/ha, visual rating after 12 to 14 days, scale 0 to 100 (0 no effect, 100 complete control)

CCc1nn(C(C)(C)C)cc1C(=O)Nc1cccc(C(C)=O)c1 [Compound 187]
20: Corn plant response rating (0 to 100 scale) [2, 23] | Corn plant response rating ([2]; 500 g ai/ha) | Lambsquarters plant response rating (0 to 100 scale) [4, 23] | Plant response rating, Velvetleaf [8, 24] | Ducksalad plant response rating [11, 25] | Pigweed plant response rating (0 to 100 scale) [12, 23] | Pigweed plant response rating ([12]; 125 g ai/ha) | Pigweed plant response rating ([12]; 500 g ai/ha) | Oat, Wild plant response rating ([14]; 500 g ai/ha) | Morningglory plant response rating (0 to 100 scale) [19, 23] | Morningglory plant response rating ([19]; 125 g ai/ha) | Morningglory plant response rating ([19]; 500 g ai/ha) | Sedge, Umbrella plant response rating [21, 25]
25: Barnyardgrass plant response rating ([16]; 125 g ai/ha, scale of 0 to 100, 0 is no effect, 100 is complete control)
100: Plant response rating, Crabgrass, Large [18, 24]
75: Plant response rating, Barnyardgrass [16, 28]
70: Plant response rating, Surinam Grass [1, 24] | Cocklebur plant response rating ([5]; 500 g ai/ha) | Plant response rating, Foxtail, Giant [7, 24] | Barnyardgrass plant response rating (0 to 100 scale) [15, 23] | Crabgrass, Large plant response rating (0 to 100 scale) [18, 23]
10: Surinam Grass plant response rating ([1]; 125 g ai/ha) | Surinam Grass plant response rating ([1]; 500 g ai/ha) | Foxtail, Giant plant response rating (0 to 100 scale) [7, 23] | Foxtail, Giant plant response rating ([7]; 125 g ai/ha) | Foxtail, Giant plant response rating ([7]; 500 g ai/ha) | Velvetleaf plant response rating (0 to 100 scale) [8, 23] | Velvetleaf plant response rating ([8]; 500 g ai/ha) | Oat, Wild plant response rating ([14]; 125 g ai/ha) | Barnyardgrass plant response rating ([15]; 125 g ai/ha) | Barnyardgrass plant response rating ([15]; 500 g ai/ha) | Crabgrass, Large plant response rating ([18]; 125 g ai/ha) | Crabgrass, Large plant response rating ([18]; 500 g ai/ha)
85: Ducksalad plant response rating [11, 27] | Plant response rating, Sedge, Umbrella [21, 28]
0: Corn plant response rating ([2]; 125 g ai/ha) | Wheat plant response rating ([3]; 125 g ai/ha) | Wheat plant response rating ([3]; 500 g ai/ha) | Lambsquarters plant response rating ([4]; 125 g ai/ha) | Lambsquarters plant response rating ([4]; 500 g ai/ha) | Cocklebur plant response rating (0 to 100 scale) [5, 23] | Plant response rating, Cocklebur [5, 24] | Velvetleaf plant response rating ([8]; 125 g ai/ha) | Barnyardgrass plant response rating [16, 25] | Blackgrass plant response rating ([20]; 125 g ai/ha) | Blackgrass plant response rating ([20]; 500 g ai/ha)
65: Plant response rating, Rice [6, 28] | Sedge, Umbrella plant response rating [21, 26]
80: Plant response rating, Rice ([10]; 500 g ai/ha, visual rating 0-100, 0 no effect, 100 complete control) | Sedge, Umbrella plant response rating [17] | Sedge, Umbrella plant response rating [21, 27]
30: Surinam Grass plant response rating (0 to 100 scale) [1, 23] | Cocklebur plant response rating ([5]; 125 g ai/ha) | Rice plant response rating [6, 26] | Rice plant response rating (0 to 100 scale) ([10]; 125 g ai/ha, 0 = no effect, 100 = complete control) | Rice plant response rating [13] | Plant response rating, Morningglory [19, 24]
50: Rice plant response rating [6, 27]
15: Rice plant response rating [6, 25]
60: Plant response rating, Corn [2, 24] | Barnyardgrass plant response rating [9] | Plant response rating, Pigweed [12, 24] | Barnyardgrass plant response rating [16, 27]
90: Plant response rating, Ducksalad [11, 28] | Plant response rating, Barnyardgrass [15, 24] | Ducksalad plant response rating [22]
40: Plant response rating, Lambsquarters [4, 24] | Ducksalad plant response rating [11, 26]
